According to patent US12611387B2, “Compound and composition for inducing neuroprotection” (REST THERAPEUTICS, priority 2020, dated 2026):

What was measured:
Bax and Bcl-2 = Bax and Bcl-2 ELISA in hippocampus, Aβ25-35 oligomer neuroprotection design; format: in vivo, mice; conditions: 0.3 mg/Kg; for Bax protein levels in the hippocampus: compared to the intoxicated, untreated group (not shown)
Method: The neuroprotective effect of the compounds, i.e. the ability thereof to protect cells from Aβ25-35 oligomer neurotoxicity and neurodegeneration, is also tested (FIG. 10). The test compounds are thus administered on the same day as the injection of the Aβ25-35 oligomers and are continued to be administered on a daily basis up to day 7 after the injection of the oligomers, at which time the mice are subjected to the YMT, PAT, MWT or ORT. The brain's anatomy is analysed and neuronal cells are counted by immunohistochemistry on mice sacrificed at D13. The biochemical analyses for the quantification of markers of oxidative stress and apoptosis were carried out at D16 on a group of mice that had been subjected to the WMT (FIG. 10).
Their brains were removed, and the hippocampi were isolated, weighed and frozen at −80° C. awaiting biochemical analysis.
Interleukin 6 (IL-6), a cytokine inflammatory marker, and the levels of the apoptosis markers Bcl2 and Bax proteins were measured in mouse hippocampi by the ELISA tests listed in Table 1 hereinbelow. Bcl2 is often referred to as an anti-apoptotic marker and Bax as a pro-apoptotic marker. Both hippocampi of 6-8 animals per condition were used. The tissues were homogenised after thawing in cell lysis buffer (1 mL, 3 IS007, Cloud-Clone) and sonicated on ice (2×10 s). After centrifugation (10,000 g, 5 min, 4° C.), the supernatants containing the markers to be measured were aliquoted and stored at −80° C. until the ELISA test was carried out according to the supplier's instructions. The results are expressed in ng of marker per mg of total protein and as a percentage of the control (mice not intoxicated with Aβ25-35 and not treated with the test compounds).

[1] = test system: Aβ25-35 oligomer-intoxicated mice; assay: Object recognition test, symptomatic treatment; format: in vivo; conditions: symptomatic design (not shown)
Method: The test compounds were tested for their ability to decrease the cognitive symptoms of Aβ25-35 oligomer-induced neurodegeneration, i.e. their ability to provide symptomatic anti-amnestic treatment (FIGS. 1A and 1B). In brief, to test the symptomatic effect of the test compounds, they were administered 8 days after the icy injection of the Aβ25-35 oligomers, 30 minutes before the YMT and PAT memory tests were conducted or 30 minutes before the test, but after the training session, in the case of the MWT or ORT (FIG. 1A). The Hamlet Test® (FIG. 1B) involves a 2-week training session (4 hr/day) followed by a test (max. 10 min) under water deprivation conditions and under normal conditions; the Aβ25-35 peptide is injected after this first test. After one week, the compounds are administered and a second test under water deprivation conditions and under normal conditions is performed 30 min after injection. […]
This test is used to assess recognition memory abilities (Rodriguez Cruz et al., 2017; Maurice et al., 2019). […] The exploratory behaviour, activity and position of the animal's nose were recorded for 10 minutes (Nosetrack® software, Viewpoint, Lissieu, France). The number of contacts with the objects and the duration thereof were measured. […] The exploratory behaviour of each mouse was then also recorded for 10 minutes. […]
An exploration index was calculated using to the following formula: […]

NMDA receptors = conditions: described in WO 2014/191424; cited from earlier work
[2] = test system: viable neurons in the CA1 area of the hippocampus; assay: Quantification of viable neurons in area CA1 (cresyl violet); format: in vivo; conditions: 0.3 mg/Kg i.p., oligomer-intoxicated mice (not shown)
Method: The neuroprotective effect of the compounds, i.e. the ability thereof to protect cells from Aβ25-35 oligomer neurotoxicity and neurodegeneration, is also tested (FIG. 10). The test compounds are thus administered on the same day as the injection of the Aβ25-35 oligomers and are continued to be administered on a daily basis up to day 7 after the injection of the oligomers, at which time the mice are subjected to the YMT, PAT, MWT or ORT. The brain's anatomy is analysed and neuronal cells are counted by immunohistochemistry on mice sacrificed at D13. The biochemical analyses for the quantification of markers of oxidative stress and apoptosis were carried out at D16 on a group of mice that had been subjected to the WMT (FIG. 10). […]
In Alzheimer's patients, a decrease in neurons has been reported in the CA1 region (and to a lesser extent in the CA3 region). […] In order to quantify viable neurons in the CA1 region of the mouse hippocampus, the corresponding sections were stained with cresyl violet (0.12%, Sigma-Aldrich), dehydrated with ethanol, treated with xylene and mounted with a mounting medium (Mountex medium, BDH Laboratory Supplies) and dried at 24° C. at ambient temperature. The images were recorded and analysed (Nanozoomer virtual microscopy system, Hamamatsu, Massy, France). […]

SMILES	Bax protein levels in the hippocampus (Bax and Bcl-2)	Bax/Bcl-2 ratio in the hippocampus (Bax and Bcl-2)	anti-amnestic effect in object recognition [1]	affinity for NMDA receptors (NMDA receptors)	number of viable neurons in the CA1 area [2]	thickness of the CA1 area [2]
CC12CC3CC(C)(C1)CC(N)(C3)C2 [memantine, 3,5-Dimethyl-1-adamantanamine, reference compound]	significantly reduced					
NC12CC3CC(C1)CC(CCF)(C3)C2 [FENM, 3-(2-fluoroethyl)adamantan-1-amine]	significantly reduced	significantly decreased the Bax/BcI-2 ratio	confirmed	of an order of magnitude that is similar to that of memantine	maintained the number of viable neurons in the CA1 area of the hippocampus	counteracted the increase in thickness of this area
